Source: patent US9169241B2, “Quinolinyloxyphenylsulfonamides” (Max-Planck-Gesellschaft Zur Forderung der Wissenschaften …, priority 2009, dated 2015)
Read-outs that look alike come from different tables or passages of the source.

What was measured:
Assay type in all cases: cell-based
C8161 = assay: Cell vitality assay (ATP assay, CellTiter-Glo); details: Homo sapiens; C8161, 72 h; Table IIa; read-out: IC50 ATP-Assay after 72 h C8161
In short: (§1)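 IC50s reflect 50% loss of ATP-dependent luminescence versus DMSO control after a 72 h treatment of 1000 cells per well across 0.195–12.5 μM compound.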

MDA-MB231 = assay: Cell vitality assay (ATP assay, CellTiter-Glo); details: Homo sapiens, MDA-MB-231
In short: as §1

SF763 = assay: Cell vitality assay (ATP assay, CellTiter-Glo); details: SF763, 72 h; Table IIa; read-out: IC50 ATP-Assay after 72 h SF763
In short: as §1

Hs578T = assay: Apoptosis assay (Cellomics, nucleus condensation); details: Homo sapiens, Hs-578T, Table III, read-out: Apoptosis induction in Hs578T
In short: (§2)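 Apoptosis scored by automated microscopy of Hoechst-stained live nuclei, 24 and 48 h after treatment with 0.39–12.5 μM compound or DMSO.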

SF126 [1] = assay: Apoptosis assay (Cellomics, nucleus condensation); details: Homo sapiens, SF-126, Table III, read-out: Apoptosis induction in SF126
In short: as §2

U118 [2] = assay: Apoptosis assay (Cellomics, nucleus condensation); details: Table III, read-out: Apoptosis induction in U118
In short: as §2

tumor cell = assay: Matrigel outgrowth assay/branching assay (Table Va)
In short: (§3)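 Matrigel 3 mg/ml, polymerized 1 h 37° C; 5000 cells/well + cmpd 3.125/1.56/0.78 μM or DMSO. Imaged 48/72/96 h, 5× objective. Positive = total branching block.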

cells = assay: Boyden chamber migration assay (Table VI); details: Homo sapiens, Hs-578T, 16 h, Hs578T cells; 16 h migration
In short: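 Migration read-out is a count of fixed cells on the underside of an […] insert membrane after 16 h. Chemoattractant was medium with 10% FCS in the lower chamber; 20000 cells started in serum-free medium with 0.1% BSA above, and those left on top were removed by swab.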

A172 [3] = assay: Cell vitality assay (ATP assay, CellTiter-Glo); details: Homo sapiens, A 172; A172, 72 h; Table IIa; read-out: IC50 ATP-Assay after 72 h A172
In short: as §1

A172 [4] = assay: Matrigel outgrowth assay/branching assay; details: Homo sapiens, A 172, Table Vb, read-out: Total branching inhibition in Matrigel A172
In short: as §3

SF126 [5] = assay: Matrigel outgrowth assay/branching assay; details: Homo sapiens, SF-126, Table Vb, read-out: Total branching inhibition in Matrigel SF126
In short: as §3

U118 [6] = assay: Matrigel outgrowth assay/branching assay; details: Table Vb, read-out: Total branching inhibition in Matrigel U118
In short: as §3

[7] = Homo sapiens, C8161 cells, read-out: Total branching inhibition in Matrigel C8161
[8] = Homo sapiens, Hs-578T, Hs578T cells, read-out: Total branching inhibition in Matrigel Hs578T
[9] = U118 cells, read-out: Total branching inhibition in Matrigel U118
[10] = U138 cells, read-out: Total branching inhibition in Matrigel U138
[11] = cell vitality assay, MDA-MB231, Table IIc, read-out: IC50 MDA-MB231

| IC50 (MDA-MB231; MDA-MB231, 72 h, Table IIa, read-out: IC50 ATP-Assay after 72 h MDA-MB231) | IC50 (tumor cell; [7]) | IC50 (tumor cell; [8]) | IC50 (tumor cell; [9]) | IC50 (tumor cell; [10]) | IC50 (cells) | IC50 (MDA-MB231; [11]) | Structure (SMILES) | IC50 (C8161) | IC50 (SF763) | IC50 (Hs578T) | IC50 (SF126 [1]) | IC50 (U118 [2]) | IC50 (A172 [3]) | IC100 (A172 [4]) | IC100 (SF126 [5]) | IC100 (U118 [6]) |
| --- | --- | --- | --- | --- | --- | --- | --- | --- | --- | --- | --- | --- | --- | --- | --- | --- |
| 12.5 to 50 µM | 5 to 50 µM | ≤ 5 µM | 5 to 50 µM | 5 to 50 µM | ≤ 5 µM |  | COc1cc2c(Oc3ccc(NS(=O)(=O)c4ccccc4[N+](=O)[O-])cc3F)ccnc2cc1OCCCN1CCN(C)CC1 [Example 21, N-(3-Fluoro-4-{6-methoxy-7-[3-(4-methyl-piperazin-1-yl)-propoxy]-quinolin-4-yloxy}-phenyl)-2-nitro-benzenesulfonamide] | 12.5 to 50 µM | 12.5 to 50 µM | ≤ 12.5 µM | ≤ 12.5 µM | ≤ 12.5 µM |  |  |  |  |
|  | ≤ 5 µM | ≤ 5 µM | ≤ 5 µM | 5 to 50 µM |  | ≤ 12.5 µM | COC(=O)c1sccc1S(=O)(=O)Nc1ccc(Oc2ccnc3cc(OCCCN4CCCC(C)C4)c(OC)cc23)c(F)c1 (stereo not drawn) [Example 66, 3-(3-Fluoro-4-{6-methoxy-7-[3-(3-methyl-piperidin-1-yl)-propoxy]-quinolin-4-yloxy}-phenylsulfamoyl)-thiophene-2-carboxylic acid methyl ester] |  |  |  |  |  | ≤ 12.5 µM | > 12.5 µM | ≤ 12.5 µM | ≤ 12.5 µM |
|  | ≤ 5 µM | ≤ 5 µM | ≤ 5 µM | 5 to 50 µM | ≤ 5 µM | ≤ 12.5 µM | COc1cc2c(Oc3ccc(NS(=O)(=O)c4ccccc4C(F)(F)F)cc3F)ccnc2cc1OCCCN1CCN(C)CC1 [Example 24, N-(3-Fluoro-4-{6-methoxy-7-[3-(4-methyl-piperazin-1-yl)-propoxy]-quinolin-4-yloxy}-phenyl)-2-trifluoromethyl-benzenesulfonamide] |  |  |  |  |  |  | ≤ 12.5 µM | ≤ 12.5 µM | ≤ 12.5 µM |
|  |  |  |  |  |  |  | COc1cc2c(Oc3ccc(NS(=O)(=O)c4ccccc4OC(F)(F)F)cc3F)ccnc2cc1OCCCN1CCCCC1 [Example 78, N-{3-Fluoro-4-[6-methoxy-7-(3-piperidin-1-yl-propoxy)-quinolin-4-yloxy]-phenyl}-2-trifluoromethoxy-benzenesulfonamide] |  |  |  |  |  | ≤ 12.5 µM | > 12.5 µM | ≤ 12.5 µM | > 12.5 µM |
|  |  |  |  |  |  |  | COc1cc2c(Oc3ccc(NS(=O)(=O)c4c(Cl)cccc4Cl)cc3F)ccnc2cc1OCCCN1CCCCC1 [Example 6, 2,6-Dichloro-N-{3-fluoro-4-[6-methoxy-7-(3-piperidin-1-yl-propoxy)-quinolin-4-yloxy]-phenyl}-benzenesulfonamide] |  |  |  |  |  | ≤ 12.5 µM | > 12.5 µM | ≤ 12.5 µM | ≤ 12.5 µM |
|  |  |  |  |  |  |  | COC(=O)c1sccc1S(=O)(=O)Nc1ccc(Oc2ccnc3cc(OCCCN(C)C)c(OC)cc23)c(F)c1 [Example 184, 3-{4-[7-(3-Dimethylamino-propoxy)-6-methoxy-quinolin-4-yloxy]-3-fluoro-phenylsulfamoyl}-thiophene-2-carboxylic acid methyl ester] |  |  |  |  |  | ≤ 12.5 µM | > 12.5 µM | ≤ 12.5 µM | ≤ 12.5 µM |
|  |  |  |  |  |  |  | COc1cc2c(Oc3c(Cl)cc(NS(=O)(=O)c4c(F)cccc4F)cc3Cl)ccnc2cc1OCCCN1CCC(C)CC1 [Example 209, N-(3,5-Dichloro-4-{6-methoxy-7-[3-(4-methyl-piperidin-1-yl)-propoxy]-quinolin-4-yloxy}-phenyl)-2,6-difluoro-benzenesulfonamide] |  |  |  |  |  | ≤ 12.5 µM | ≤ 12.5 µM | ≤ 12.5 µM | ≤ 12.5 µM |
|  | ≤ 5 µM | ≤ 5 µM | ≤ 5 µM | ≤ 5 µM | ≤ 5 µM | ≤ 12.5 µM | COc1cc2c(Oc3ccc(NS(=O)(=O)c4cc(F)ccc4F)cc3F)ccnc2cc1OCCCN1CCN(C)CC1 [Example 12, 2,5-Difluoro-N-(3-fluoro-4-{6-methoxy-7-[3-(4-methyl-piperazin-1-yl)-propoxy]-quinolin-4-yloxy}-phenyl)-benzenesulfonamide] |  |  |  |  |  | ≤ 12.5 µM | ≤ 12.5 µM | ≤ 12.5 µM | ≤ 12.5 µM |
|  |  |  |  |  |  |  | COc1cc2c(Oc3ccc(NS(=O)(=O)c4c(F)cccc4F)cc3F)ccnc2cc1OCCCN1CCCCC1 [Example 11, 2,6-Difluoro-N-{3-fluoro-4-[6-methoxy-7-(3-piperidin-1-yl-propoxy)-quinolin-4-yloxy]-phenyl}-benzenesulfonamide] |  |  |  |  |  | 12.5 to 50 µM | > 12.5 µM | > 12.5 µM | > 12.5 µM |
|  |  |  |  |  |  |  | COc1cc2c(Oc3ccc(NS(=O)(=O)c4ccc(F)c(F)c4F)cc3F)ccnc2cc1OCCCN1CCCC(C)C1 (stereo not drawn) [Example 49, 2,3,4-Trifluoro-N-(3-fluoro-4-{6-methoxy-7-[3-(3-methyl-piperidin-1-yl)-propoxy]-quinolin-4-yloxy}-phenyl)-benzenesulfonamide] |  |  |  |  |  | ≤ 12.5 µM | > 12.5 µM | > 12.5 µM | > 12.5 µM |
|  |  |  |  |  |  |  | COc1cc2c(Oc3ccc(NS(=O)(=O)c4c(Cl)cccc4Cl)cc3Cl)ccnc2cc1OCCCN1CCN(C)CC1 [Example 119, 2,6-Dichloro-N-(3-chloro-4-{6-methoxy-7-[3-(4-methyl-piperazin-1-yl)-propoxy]-quinolin-4-yloxy}-phenyl)-benzenesulfonamide] |  |  |  |  |  | ≤ 12.5 µM | ≤ 12.5 µM | ≤ 12.5 µM | ≤ 12.5 µM |
|  |  |  |  |  |  |  | COC(=O)c1sccc1S(=O)(=O)Nc1ccc(Oc2ccnc3cc(OCCCN4CCN(C)CC4)c(OC)cc23)c(F)c1 [Example 158, 3-(3-Fluoro-4-{6-methoxy-7-[3-(4-methyl-piperazin-1-yl)-propoxy]-quinolin-4-yloxy}-phenylsulfamoyl)-thiophene-2-carboxylic acid methyl ester] |  |  |  |  |  | ≤ 12.5 µM | > 12.5 µM | ≤ 12.5 µM | ≤ 12.5 µM |
|  |  |  |  |  |  |  | COc1cc2c(Oc3c(Cl)cc(NS(=O)(=O)c4ccccc4C(F)(F)F)cc3Cl)ccnc2cc1OCCCN1CCC(C)CC1 [Example 210, N-(3,5-Dichloro-4-{6-methoxy-7-[3-(4-methyl-piperidin-1-yl)-propoxy]-quinolin-4-yloxy}-phenyl)-2-trifluoromethyl-benzenesulfonamide] |  |  |  |  |  | ≤ 12.5 µM | > 12.5 µM | ≤ 12.5 µM | ≤ 12.5 µM |
|  |  |  |  |  |  |  | COc1cc2c(Oc3ccc(NS(=O)(=O)c4ccccc4[N+](=O)[O-])cc3F)ccnc2cc1OCCCN1CCCC(C)C1 (stereo not drawn) [Example 40, N-(3-Fluoro-4-{6-methoxy-7-[3-(3-methyl-piperidin-1-yl)-propoxy]-quinolin-4-yloxy}-phenyl)-2-nitro-benzenesulfonamide] |  |  |  |  |  | ≤ 12.5 µM | > 12.5 µM | ≤ 12.5 µM | > 12.5 µM |

| Structure (SMILES) | IC50 (MDA-MB231; MDA-MB231, 72 h, Table IIa, read-out: IC50 ATP-Assay after 72 h MDA-MB231) | IC50 (tumor cell; [7]) | IC50 (tumor cell; [8]) | IC50 (tumor cell; [9]) | IC50 (tumor cell; [10]) | IC50 (cells) | IC50 (MDA-MB231; [11]) | IC50 (C8161) | IC50 (SF763) | IC50 (Hs578T) | IC50 (SF126 [1]) | IC50 (U118 [2]) | IC50 (A172 [3]) | IC100 (A172 [4]) | IC100 (SF126 [5]) | IC100 (U118 [6]) |
| --- | --- | --- | --- | --- | --- | --- | --- | --- | --- | --- | --- | --- | --- | --- | --- | --- |
| COc1cc2c(Oc3ccc(NS(=O)(=O)c4ccccc4C(F)(F)F)cc3F)ccnc2cc1OCCCN(C)C [Example 100, N-{4-[7-(3-Dimethylamino-propoxy)-6-methoxy-quinolin-4-yloxy]-3-fluoro-phenyl}-2-trifluoromethyl-benzenesulfonamide] |  | ≤ 5 µM | ≤ 5 µM | ≤ 5 µM | 5 to 50 µM |  |  |  |  | ≤ 12.5 µM | ≤ 12.5 µM | 12.5 to 50 µM | ≤ 12.5 µM | > 12.5 µM | ≤ 12.5 µM | ≤ 12.5 µM |
